{"source": "patent US11492386B2", "about": "“Parathyroid hormone-anti-RANKL antibody fusion compounds” (Eli Lilly and Company, priority 2016, dated 2022)", "tested_on": "orchidectomized murine model", "experiment": "In vivo efficacy (BMD and BMC by qCT) in orchidectomized murine model", "parameters": "species or system mice", "conditions": "5 μg/kg daily sc, two weeks", "procedure": "Effects on bone mass density and bone mineral content, in vivo, are assessed using an orchidectomized murine model. Sixteen week old […] C57/B6 mice (Harlan, Indianapolis, Ind.) are orchidectomized (or vehicle control group, n=6) and maintained on a 12 hour light/dark cycle at 22° C. with ad lib access to food (TD 2014 with 0.72% Ca and 0.61% P, Vit. D 0.99 IU/g, Teklad, Madison, Wis.) and water. Osteopenia is established in the orchidectomized mice by allowing mice to lose bone mass for a six-week period.\nFollowing a six-week osteopenia-establishing period, mice are divided into treatment groups and a vehicle PBS control group. […]\nBone mass density (BMD) of distal femur and bone mineral content (BMC) of lumbar vertebra are assessed by quantitative computed tomography (qCT) using Aloka LaTheta LTC-100 model CT scanner. […]"}
{"smiles": "CC[C@H](C)[C@H](NC(=O)[C@H](CCC(=O)O)NC(=O)[C@H](CO)NC(=O)[C@@H](NC(=O)[C@@H](N)CO)C(C)C)C(=O)N[C@@H](CCC(N)=O)C(=O)N[C@@H](CC(C)C)C(=O)N[C@@H](CCSC)C(=O)N[C@@H](Cc1c[nH]cn1)C(=O)N[C@@H](CC(N)=O)C(=O)N[C@@H](CC(C)C)C(=O)NCC(=O)N[C@@H](CCCCN)C(=O)N[C@@H](Cc1c[nH]cn1)C(=O)N[C@@H](CC(C)C)C(=O)N[C@@H](CC(N)=O)C(=O)N[C@@H](CO)C(=O)N[C@@H](CCSC)C(=O)N[C@@H](CCC(=O)O)C(=O)N[C@@H](CCCNC(=N)N)C(=O)N[C@H](C(=O)N[C@@H](CCC(=O)O)C(=O)N[C@@H](Cc1c[nH]c2ccccc12)C(=O)N[C@@H](CC(C)C)C(=O)N[C@@H](CCCNC(=N)N)C(=O)N[C@@H](CCCCN)C(=O)N[C@@H](CCCCN)C(=O)N[C@@H](CC(C)C)C(=O)N[C@@H](CCC(N)=O)C(=O)N[C@@H](CC(=O)O)C(=O)N[C@H](C(=O)N[C@@H](Cc1c[nH]cn1)C(=O)N[C@@H](CC(N)=O)C(=O)N[C@@H](Cc1ccccc1)C(=O)N[C@H](C(=O)N[C@@H](C)C(=O)N[C@@H](CC(C)C)C(=O)NCC(=O)O)C(C)C)C(C)C)C(C)C", "note": "[PTH Peptide, reference compound]", "values": [{"measurement": "Distal-Femur (% BMD change)", "value": 16, "unit": "%"}, {"measurement": "Lumbar Vertebra (% BMC change)", "value": 1, "unit": "%"}]}
